Columns and labels:
Set-up in all cases: species or system Bacteria
[1] = Inhibition of bacterial NDM-1 (1 to 270 residues) expressed in Escherichia coli Transetta (DE3) using FC-5 as substrate preincubated with enzyme for 10 mins followed by substrate addition by fluorescence based analysis
[2] = Inhibition of bacterial recombinant full length N-terminal-TEV-His6-tagged VIM-5 expressed in Escherichia coli Transetta using FC-5 as substrate preincubated with enzyme for 10 mins followed by substrate addition by fluorescence based analysis
[3] = Inhibition of bacterial recombinant full length C-terminal-TEV-His6-tagged VIM-1 expressed in Escherichia coli Transetta using FC-5 as substrate preincubated with enzyme for 10 mins followed by substrate addition by fluorescence based analysis
[4] = Inhibition of bacterial VIM-2 (27 to 266 residues) expressed in Escherichia coli Transetta (DE3) using FC-5 as substrate preincubated with enzyme for 10 mins followed by substrate addition by fluorescence based analysis
[5] = Inhibition of bacterial IMP-1 (1 to 246 residues) expressed in Escherichia coli Transetta (DE3) using FC-5 as substrate preincubated with enzyme for 10 mins followed by substrate addition by fluorescence based analysis

Structure (SMILES) | IC50 [1] [µM] | IC50 [2] [µM] | IC50 [3] [µM] | IC50 [4] [µM] | IC50 [5] [µM]
CCC(C)n1ccnc1C(=O)O (stereo not given) | > 300 | 31.6 | 21.3 | 2.04 | > 300
NCCn1ccnc1C(=O)O | > 300 | > 300 | > 300 | > 300 | > 300
O=C(O)c1nccn1CCO | > 300 | > 300 | > 300 | 75.2 | > 300
O=C(O)c1nccn1C1CCC1 | > 300 | > 300 | 32.1 | 11.8 | 161
Cn1nnnc1SCCn1ccnc1C(=O)O | > 300 | 16.5 | 45.7 | 2.13 | 160
CSCn1ccnc1C(=O)O | > 300 | 64 | 18 | 6.89 | 114
C=CCn1ccnc1C(=O)O | > 300 | > 300 | > 300 | 46.4 | > 300
COC(=O)C(C)n1ccnc1C(=O)O (stereo not given) | > 300 | > 300 | > 300 | > 300 | > 300
Cc1cn(Cc2ccccc2)c(C(=O)O)n1 | > 300 | 31.9 | > 300 | 10.7 | 1.5
O=C(O)c1nccn1Cc1ccc([N+](=O)[O-])cc1 | 114 | 0.065 | 13.9 | 2.7 | 30.2
CCn1ccnc1C(=O)O | > 300 | > 300 | > 300 | 32 | > 300
O=C(O)c1nccn1Cc1cccs1 | > 300 | 28.6 | 50 | 2.67 | 100
O=C(O)c1nccn1C1CC1 | > 300 | 47.1 | 29.7 | 19.4 | > 300
C[S+]([O-])Cn1ccnc1C(=O)O (stereo not given) | > 300 | > 300 | > 300 | 64.1 | > 300
N#CCCn1ccnc1C(=O)O | > 300 | > 300 | > 300 | 22.2 | > 300
Nc1cccc(Cn2ccnc2C(=O)O)c1 | > 300 | > 300 | > 300 | 7.76 | > 300
O=C(O)c1nccn1Cc1cccnc1Cl | > 300 | 22 | 30.5 | 0.77 | > 300
O=C(O)c1ncc[nH]1 | > 300 | 30.9 | > 300 | 65.4 | > 300
CCCn1ccnc1C(=O)O | > 300 | 18.9 | 15.3 | 2.67 | 58.4
CN(C)CCn1ccnc1C(=O)O | > 300 | > 300 | > 300 | > 300 | > 300
C=CCCn1cc(C)nc1C(=O)O | > 300 | 90.5 | > 300 | 13.7 | 4.05
COCCn1ccnc1C(=O)O | > 300 | 101 | 272 | 15.5 | > 300
CN(C)CCCn1ccnc1C(=O)O | > 300 | > 300 | > 300 | > 300 | > 300
CC(C)n1ccnc1C(=O)O | > 300 | 133 | 21.2 | 10.1 | > 300
O=C(O)c1ncc(C2CC2)n1Cc1ccccc1 | 34.1 | 0.18 | 15.5 | 0.13 | 110
O=C(O)c1nccn1C1COC1 | > 300 | > 300 | > 300 | > 300 | > 300
CCc1ccc(Cn2ccnc2C(=O)O)cc1 | > 300 | 23.4 | > 300 | 5.79 | > 300

Reference: ChEMBL document CHEMBL5154646, “Structure-guided optimization of 1H-imidazole-2-carboxylic acid derivatives affording potent VIM-Type metallo-β-lactamase inhibitors” (Eur J Med Chem, 2022)
